Laboratory results taken from ChEMBL document CHEMBL1156685, “Synthesis and structure-activity relationships of N-6 substituted analogues of 9-hydroxy-4-phenylpyrrolo[3,4-c]carbazole-1,3(2H,6H)-diones as inhibitors of Wee1 and Chk1 checkpoint kinases” (Eur J Med Chem, 2008).
≈ marks a conversion by molar mass, not a printed value.

Tests used:
[1] = molecular target: Proto-oncogene tyrosine-protein kinase Src (Homo sapiens, UniProt P12931)
[2] = molecular target: Cyclin-dependent kinase 1/cyclin B1 (Homo sapiens, UniProt P06493); format: cell-based, HT-29
Chain of Cyclin-dependent kinase 1/cyclin B1 (P06493 whole entry): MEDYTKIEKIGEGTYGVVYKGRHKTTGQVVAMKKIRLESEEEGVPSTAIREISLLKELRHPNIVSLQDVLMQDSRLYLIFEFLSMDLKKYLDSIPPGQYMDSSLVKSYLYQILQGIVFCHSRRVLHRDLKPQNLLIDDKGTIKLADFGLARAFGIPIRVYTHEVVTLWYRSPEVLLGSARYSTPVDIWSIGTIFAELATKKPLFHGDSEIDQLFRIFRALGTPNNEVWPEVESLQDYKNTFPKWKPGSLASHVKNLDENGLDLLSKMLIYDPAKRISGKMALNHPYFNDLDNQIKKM
Chain of Cyclin-dependent kinase 1/cyclin B1 (P14635 whole entry, further chain): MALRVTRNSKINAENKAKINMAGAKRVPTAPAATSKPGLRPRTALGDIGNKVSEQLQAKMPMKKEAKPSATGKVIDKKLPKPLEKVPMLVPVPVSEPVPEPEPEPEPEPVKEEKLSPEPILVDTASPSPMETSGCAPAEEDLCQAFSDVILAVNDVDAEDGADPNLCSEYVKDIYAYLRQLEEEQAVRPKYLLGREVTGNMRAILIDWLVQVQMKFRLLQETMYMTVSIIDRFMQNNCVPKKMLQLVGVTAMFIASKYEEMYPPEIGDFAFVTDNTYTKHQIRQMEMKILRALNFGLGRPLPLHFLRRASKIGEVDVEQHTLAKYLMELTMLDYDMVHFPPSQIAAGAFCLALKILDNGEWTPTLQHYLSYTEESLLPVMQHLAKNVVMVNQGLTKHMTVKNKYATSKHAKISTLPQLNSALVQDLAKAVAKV
Description: Inhibition of Cdc2/cyclin B assessed as inhibition of histone H1 phosphorylation in human HT29 cells

[3] = physchem; details: buffer
Description: Aqueous solubility of the compound

[4] = molecular target: Wee1-like protein kinase (Homo sapiens, UniProt P30291)
Chain of Wee1-like protein kinase (P30291 whole entry): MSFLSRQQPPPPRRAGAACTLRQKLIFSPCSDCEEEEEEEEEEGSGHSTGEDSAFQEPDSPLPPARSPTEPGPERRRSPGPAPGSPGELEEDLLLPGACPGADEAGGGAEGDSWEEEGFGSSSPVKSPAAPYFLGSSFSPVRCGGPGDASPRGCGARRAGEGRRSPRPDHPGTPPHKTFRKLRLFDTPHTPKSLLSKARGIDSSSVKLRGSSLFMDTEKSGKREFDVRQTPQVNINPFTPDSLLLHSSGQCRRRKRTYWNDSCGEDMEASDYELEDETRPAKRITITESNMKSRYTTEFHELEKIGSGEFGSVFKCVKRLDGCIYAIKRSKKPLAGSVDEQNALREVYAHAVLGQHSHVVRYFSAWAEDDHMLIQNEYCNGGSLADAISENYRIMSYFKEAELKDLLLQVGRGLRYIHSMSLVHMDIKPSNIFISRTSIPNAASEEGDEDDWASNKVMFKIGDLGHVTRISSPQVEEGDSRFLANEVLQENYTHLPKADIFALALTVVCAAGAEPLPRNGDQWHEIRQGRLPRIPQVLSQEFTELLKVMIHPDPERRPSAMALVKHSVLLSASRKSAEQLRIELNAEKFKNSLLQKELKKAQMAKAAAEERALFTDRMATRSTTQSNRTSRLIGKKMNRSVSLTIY
Description: Inhibition of human Wee1 assessed as polyornithine-tyrosine copolymer phosphorylation

[5] = molecular target: Cyclin-dependent kinase 1 (Homo sapiens, UniProt P06493); format: cell-based; details: ht-29
Chain of Cyclin-dependent kinase 1 (P06493 whole entry): as the sequence (P06493 whole entry) above
Description: Inhibition of Cdc2 Tyr15 phosphorylation in human HT29 cells by Western blot

Chain of Proto-oncogene tyrosine-protein kinase Src (P12931 2-536 limits assumed): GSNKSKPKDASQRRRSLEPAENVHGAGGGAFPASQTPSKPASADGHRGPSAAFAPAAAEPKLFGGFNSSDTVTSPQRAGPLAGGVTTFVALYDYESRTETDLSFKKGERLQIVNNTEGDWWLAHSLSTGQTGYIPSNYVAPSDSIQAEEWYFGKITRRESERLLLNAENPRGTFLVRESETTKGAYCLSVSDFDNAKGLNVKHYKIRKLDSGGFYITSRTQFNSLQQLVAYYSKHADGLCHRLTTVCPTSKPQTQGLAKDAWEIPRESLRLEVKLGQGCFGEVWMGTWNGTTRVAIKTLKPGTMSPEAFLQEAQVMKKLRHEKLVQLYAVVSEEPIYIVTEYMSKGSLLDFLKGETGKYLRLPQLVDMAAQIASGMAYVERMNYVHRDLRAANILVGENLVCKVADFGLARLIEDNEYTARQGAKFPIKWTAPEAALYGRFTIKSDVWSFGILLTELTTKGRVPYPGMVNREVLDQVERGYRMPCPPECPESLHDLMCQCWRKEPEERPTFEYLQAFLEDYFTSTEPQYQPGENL

SMILES | IC50 [1] | IC50 [2] | solubility [3] | IC50 [4] | IC50 [5]
O=C1NC(=O)c2c1c(-c1ccccc1Cl)cc1[nH]c3ccc(O)cc3c21 | > 50000 nM | – | – | – | –
O=C1NC(=O)c2c1c(-c1ccccc1Cl)cc1c2c2cc(O)ccc2n1CCCO | – | 650 nM | < 3 µg/mL | – | –
CN1CCN(CCCn2c3ccc(O)cc3c3c4c(c(-c5c(Cl)cccc5Cl)cc32)C(=O)NC4=O)CC1 | – | – | – | 62 nM | –
O=C1NC(=O)c2c1c(-c1ccccc1)cc1c2c2cc(O)ccc2n1CCCNc1ccccc1 | – | – | – | 93 nM | –
CNCCCn1c2ccc(O)cc2c2c3c(c(-c4c(Cl)cccc4Cl)cc21)C(=O)NC3=O | – | – | 7.3 µg/mL (≈ 15.6 µM) | 110 nM | –
O=C1NC(=O)c2c1c(-c1c(Cl)cccc1Cl)cc1c2c2cc(O)ccc2n1CCCn1ccnc1 | – | – | 3.2 µg/mL (≈ 6.33 µM) | 59 nM | –
CN1CCN(CCCn2c3ccc(O)cc3c3c4c(c(-c5ccccc5)cc32)C(=O)NC4=O)CC1 | 17000 nM | – | 28 µg/mL (≈ 59.8 µM) | 300 nM | –
CN(C)CCCn1c2ccc(O)cc2c2c3c(c(-c4ccccc4Cl)cc21)C(=O)NC3=O | – | – | – | 100 nM | –
CNCCCn1c2ccc(O)cc2c2c3c(c(-c4ccccc4)cc21)C(=O)NC3=O | – | – | – | 280 nM | –
O=C(O)CCn1c2ccc(O)cc2c2c3c(c(-c4ccccc4Cl)cc21)C(=O)NC3=O | – | – | > 60 µg/mL | – | –
O=C1NC(=O)c2c1c(-c1ccccc1Cl)cc1c2c2cc(O)ccc2n1CCCNc1ccccc1 | – | – | – | 74 nM | –
O=C(O)CCn1c2ccc(O)cc2c2c3c(c(-c4c(Cl)cccc4Cl)cc21)C(=O)NC3=O | – | – | 33 µg/mL (≈ 70.3 µM) | 390 nM | –
CS(=O)(=O)NC(=O)CCn1c2ccc(O)cc2c2c3c(c(-c4ccccc4Cl)cc21)C(=O)NC3=O | – | > 3400 nM | > 60 µg/mL | 12 nM | 250 nM
CN(C)CCNC(=O)CCn1c2ccc(O)cc2c2c3c(c(-c4c(Cl)cccc4Cl)cc21)C(=O)NC3=O | – | – | > 60 µg/mL | 14 nM | –
O=C1NC(=O)c2c1c(-c1c(Cl)cccc1Cl)cc1c2c2cc(O)ccc2n1CCCNc1ccccc1 | – | – | – | 67 nM | –
CN(C)CCNC(=O)CCn1c2ccc(O)cc2c2c3c(c(-c4ccccc4Cl)cc21)C(=O)NC3=O | – | 1300 nM | > 60 µg/mL | 35 nM | < 250 nM
O=C(O)CCn1c2ccc(O)cc2c2c3c(c(-c4ccccc4)cc21)C(=O)NC3=O | 13000 nM | – | > 60 µg/mL | – | –
NC(=O)CCn1c2ccc(O)cc2c2c3c(c(-c4c(Cl)cccc4Cl)cc21)C(=O)NC3=O | – | – | < 3 µg/mL | 330 nM | –
O=C1NC(=O)c2c1c(-c1ccccc1)cc1c2c2cc(O)ccc2n1CCCO | – | – | < 3 µg/mL | 200 nM | –
O=C1NC(=O)c2c1c(-c1ccccc1)cc1c2c2cc(O)ccc2n1CCO | – | – | – | 25 nM | –

SMILES | IC50 [1] | IC50 [2] | solubility [3] | IC50 [4] | IC50 [5]
O=C1NC(=O)c2c1c(-c1c(Cl)cccc1Cl)cc1c2c2cc(O)ccc2n1CCO | – | – | < 3 µg/mL | – | –
O=C1NC(=O)c2c1c(-c1c(Cl)cccc1Cl)cc1c2c2cc(O)ccc2n1CCCO | – | – | < 3 µg/mL | 7 nM | –
O=C1NC(=O)c2c1c(-c1ccccc1Cl)cc1c2c2cc(O)ccc2n1CCCc1nnn[nH]1 | – | > 3400 nM | > 60 µg/mL | 16 nM | > 10000 nM
O=C1NC(=O)c2c1c(-c1ccccc1Cl)cc1c2c2cc(O)ccc2n1CC[S+]([O-])c1nnc[nH]1 (configuration not stated) | – | – | 18 µg/mL (≈ 35.6 µM) | 9 nM | –
O=C1NC(=O)c2c1c(-c1ccccc1Cl)cc1c2c2cc(O)ccc2n1CCS(=O)(=O)c1nnc[nH]1 | – | – | 16 µg/mL (≈ 30.7 µM) | 19 nM | –
NC(=O)CCn1c2ccc(O)cc2c2c3c(c(-c4ccccc4Cl)cc21)C(=O)NC3=O | – | > 3400 nM | – | 6 nM | > 10000 nM
O=C1NC(=O)c2c1c(-c1ccccc1Cl)cc1c2c2cc(O)ccc2n1CCCn1ccnc1 | – | – | – | 54 nM | –
O=C1NC(=O)c2c1c(-c1c(Cl)cccc1Cl)cc1c2c2cc(O)ccc2n1CCCN1CCOCC1 | – | – | – | 64 nM | –
CN(C)CCn1c2ccc(O)cc2c2c3c(c(-c4ccccc4Cl)cc21)C(=O)NC3=O | – | – | 8.5 µg/mL (≈ 19.6 µM) | 96 nM | –
CN(C)CCn1c2ccc(O)cc2c2c3c(c(-c4c(Cl)cccc4Cl)cc21)C(=O)NC3=O | – | – | 7.4 µg/mL (≈ 15.8 µM) | 170 nM | –
COC(=O)CCn1c2ccc(O)cc2c2c3c(c(-c4ccccc4Cl)cc21)C(=O)NC3=O | – | – | < 3 µg/mL | 30 nM | –
COCCCn1c2ccc(O)cc2c2c3c(c(-c4ccccc4Cl)cc21)C(=O)NC3=O | – | – | < 3 µg/mL | 27 nM | –
O=C1NC(=O)c2c1c(-c1ccccc1)cc1c2c2cc(O)ccc2n1CCn1ccnc1 | 27000 nM | – | – | – | –
O=C1NC(=O)c2c1c(-c1c(Cl)cccc1Cl)cc1c2c2cc(O)ccc2n1CCn1ccnc1 | – | – | < 3 µg/mL | 120 nM | –
CN1CCN(CCCn2c3ccc(O)cc3c3c4c(c(-c5ccccc5Cl)cc32)C(=O)NC4=O)CC1 | – | – | – | 82 nM | –
CN(C)CCCn1c2ccc(O)cc2c2c3c(c(-c4ccccc4)cc21)C(=O)NC3=O | 5600 nM | – | – | 360 nM | –
CN(C)CCCn1c2ccc(O)cc2c2c3c(c(-c4c(Cl)cccc4Cl)cc21)C(=O)NC3=O | – | – | – | 140 nM | –
CNCCCn1c2ccc(O)cc2c2c3c(c(-c4ccccc4Cl)cc21)C(=O)NC3=O | – | 710 nM | 5.2 µg/mL (≈ 12 µM) | 69 nM | < 250 nM
O=C1NC(=O)c2c1c(-c1ccccc1)cc1c2c2cc(O)ccc2n1CCCN1CCOCC1 | 46000 nM | – | < 3 µg/mL | 290 nM | –
N#CCCn1c2ccc(O)cc2c2c3c(c(-c4ccccc4Cl)cc21)C(=O)NC3=O | – | > 3400 nM | < 3 µg/mL | 15 nM | < 250 nM

SMILES | IC50 [1] | IC50 [2] | solubility [3] | IC50 [4] | IC50 [5]
O=C1NC(=O)c2c1c(-c1ccccc1Cl)cc1c2c2cc(O)ccc2n1CCO | – | – | < 3 µg/mL | 45 nM | –
O=C(O)CCCn1c2ccc(O)cc2c2c3c(c(-c4ccccc4Cl)cc21)C(=O)NC3=O | – | > 3400 nM | – | 13 nM | > 10000 nM
NC(=O)CCn1c2ccc(O)cc2c2c3c(c(-c4ccccc4)cc21)C(=O)NC3=O | – | – | < 3 µg/mL | 21 nM | –
COc1ccccc1-c1cc2c(c3c1C(=O)NC3=O)c1cc(O)ccc1n2CCCO | – | – | < 3 µg/mL | – | –
O=C1NC(=O)c2c1c(-c1ccccc1Cl)cc1c2c2cc(O)ccc2n1CCc1nnn[nH]1 | – | > 3400 nM | > 60 µg/mL | 21 nM | 2500 nM
O=C1NC(=O)c2c1c(-c1ccccc1Cl)cc1c2c2cc(O)ccc2n1CCSc1nnc[nH]1 | – | – | 3 µg/mL (≈ 6.12 µM) | 24 nM | –
O=C(CCn1c2ccc(O)cc2c2c3c(c(-c4ccccc4Cl)cc21)C(=O)NC3=O)NS(=O)(=O)c1ccccc1 | – | – | 47 µg/mL (≈ 81.9 µM) | 7 nM | –
CNCC(O)Cn1c2ccc(O)cc2c2c3c(c(-c4ccccc4Cl)cc21)C(=O)NC3=O (configuration not stated) | – | – | – | 57 nM | –
CN(C)CC(O)Cn1c2ccc(O)cc2c2c3c(c(-c4ccccc4Cl)cc21)C(=O)NC3=O (configuration not stated) | – | > 3400 nM | > 60 µg/mL | 58 nM | 250 nM
CN(C)CCNC(=O)CCn1c2ccc(O)cc2c2c3c(c(-c4ccccc4)cc21)C(=O)NC3=O | – | – | > 60 µg/mL | – | –
O=C1NC(=O)c2c1c(-c1ccccc1)cc1c2c2cc(O)ccc2n1CCCn1ccnc1 | – | – | < 3 µg/mL | 110 nM | –
CN(C)CCn1c2ccc(O)cc2c2c3c(c(-c4ccccc4)cc21)C(=O)NC3=O | 31000 nM | – | 18 µg/mL (≈ 45.1 µM) | 200 nM | –
O=C1NC(=O)c2c1c(-c1c(Cl)cccc1Cl)cc1c2c2cc(O)ccc2n1CCN1CCOCC1 | – | – | – | 110 nM | –
N#CCCCn1c2ccc(O)cc2c2c3c(c(-c4ccccc4Cl)cc21)C(=O)NC3=O | – | – | – | 33 nM | –
O=C1NC(=O)c2c1c(-c1ccccc1Cl)cc1c2c2cc(O)ccc2n1CC(O)CO (configuration not stated) | 2500 nM | – | 12 µg/mL (≈ 27.5 µM) | 23 nM | –
O=C1NC(=O)c2c1c(-c1ccccc1)cc1c2c2cc(O)ccc2n1CCN1CCOCC1 | – | – | 14 µg/mL (≈ 31.7 µM) | 140 nM | –
O=C1NC(=O)c2c1c(-c1ccccc1Cl)cc1c2c2cc(O)ccc2n1CCN1CCOCC1 | – | 1700 nM | < 3 µg/mL | 64 nM | 250 nM
O=C1NC(=O)c2c1c(-c1ccccc1Cl)cc1c2c2cc(O)ccc2n1CCn1ccnc1 | – | – | – | 92 nM | –
